Reference: the NIST ThermoML archive (doi:10.1016/j.fluid.2015.07.030)

Assay: xn = mol fraction of the nth substance listed
Details: 95.99 kPa, Liquid, Vibrating tube method

OCCOCCOCCO [triethylene glycol] + O
mass density [kg/m3]
Details | 293.15 K | 298.15 K | 303.15 K | 308.15 K | 313.15 K
x2 = 0 | 1123.12 | 1119.01 | 1114.79 | 1110.81 | 1106.7
x2 = 0.1056 | 1122.61 | 1118.31 | 1114.09 | 1109.99 | 1105.84
x2 = 0.2069 | 1121.88 | 1117.53 | 1113.37 | 1109.16 | 1105.25
x2 = 0.3103 | 1120.77 | 1116.52 | 1112.38 | 1108.31 | 1104.34
x2 = 0.4843 | 1118.69 | 1114.57 | 1110.18 | 1106.08 | 1101.98
x2 = 0.5016 | 1118.43 | 1114.12 | 1109.85 | 1105.68 | 1101.69
x2 = 0.5952 | 1116.29 | 1111.83 | 1107.57 | 1103.19 | 1099.18
x2 = 0.6015 | 1116.07 | 1111.61 | 1107.35 | 1102.97 | 1098.96
x2 = 0.6787 | 1112.29 | 1107.99 | 1103.97 | 1099.53 | 1095.62
x2 = 0.7835 | 1102.7 | 1098.52 | 1094.74 | 1090.2 | 1086.93
x2 = 0.8183 | 1096.95 | 1092.99 | 1089.46 | 1084.98 | 1081.89
x2 = 0.8472 | 1090.49 | 1086.81 | 1083.32 | 1078.84 | 1076.08
x2 = 0.8719 | 1083.52 | 1080.07 | 1076.78 | 1072.37 | 1069.93
x2 = 0.8925 | 1076.28 | 1073.04 | 1069.94 | 1065.64 | 1063.47
x2 = 0.9106 | 1068.64 | 1065.62 | 1062.7 | 1058.54 | 1056.6
x2 = 0.9254 | 1061.24 | 1058.41 | 1055.66 | 1051.66 | 1049.89
x2 = 0.9303 | 1058.23 | 1055.05 | 1052.47 | 1049.13 | 1047.41
x2 = 0.939 | 1053.42 | 1050.36 | 1048.08 | 1044.27 | 1042.63
x2 = 0.951 | 1045.41 | 1042.85 | 1040.42 | 1036.82 | 1035.27
x2 = 0.9599 | 1037.69 | 1036.35 | 1034.04 | 1030.61 | 1029.11
x2 = 0.9707 | 1029.87 | 1027.7 | 1025.28 | 1022.68 | 1019.99
x2 = 0.979 | 1021.78 | 1019.75 | 1017.72 | 1014.8 | 1013.28
x2 = 0.9866 | 1013.57 | 1011.61 | 1009.56 | 1007.37 | 1005.16
x2 = 0.9936 | 1005.7 | 1003.82 | 1001.99 | 999.97 | 997.49
